Test results published in PMC9169680 (Science (New York, N.Y.), 2022).

Key:
[1] = target: Tt-CI (Tetrahymena thermophila complex I, in Tt-SC I+III2) (Tetrahymena thermophila, UniProt Q23KE4); experiment: cryo-EM structure; type: binding; details: 2.6 Å nominal resolution; native bound cofactor of the peripheral arm
[2] = target: Tetrahymena thermophila complex III protomer (Tt-CIII) (Tetrahymena thermophila (endogenous)); experiment: cryo-EM structure

Tt-CI (Tetrahymena thermophila complex I, in Tt-SC I+III2), sequence (Q23KE4 32-474): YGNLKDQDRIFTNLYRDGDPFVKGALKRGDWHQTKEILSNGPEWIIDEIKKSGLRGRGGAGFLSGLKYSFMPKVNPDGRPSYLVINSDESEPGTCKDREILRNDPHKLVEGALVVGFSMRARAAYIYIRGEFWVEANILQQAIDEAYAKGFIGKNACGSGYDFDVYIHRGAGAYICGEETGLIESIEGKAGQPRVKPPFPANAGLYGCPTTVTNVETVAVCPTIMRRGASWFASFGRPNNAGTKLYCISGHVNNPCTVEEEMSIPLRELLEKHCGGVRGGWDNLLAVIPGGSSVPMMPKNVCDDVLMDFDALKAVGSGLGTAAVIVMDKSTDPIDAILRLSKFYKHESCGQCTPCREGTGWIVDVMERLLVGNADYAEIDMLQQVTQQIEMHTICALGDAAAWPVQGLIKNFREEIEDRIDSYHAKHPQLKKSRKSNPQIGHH
Tt-CI (Tetrahymena thermophila complex I, in Tt-SC I+III2), sequence (Q951B1 1-442 partner): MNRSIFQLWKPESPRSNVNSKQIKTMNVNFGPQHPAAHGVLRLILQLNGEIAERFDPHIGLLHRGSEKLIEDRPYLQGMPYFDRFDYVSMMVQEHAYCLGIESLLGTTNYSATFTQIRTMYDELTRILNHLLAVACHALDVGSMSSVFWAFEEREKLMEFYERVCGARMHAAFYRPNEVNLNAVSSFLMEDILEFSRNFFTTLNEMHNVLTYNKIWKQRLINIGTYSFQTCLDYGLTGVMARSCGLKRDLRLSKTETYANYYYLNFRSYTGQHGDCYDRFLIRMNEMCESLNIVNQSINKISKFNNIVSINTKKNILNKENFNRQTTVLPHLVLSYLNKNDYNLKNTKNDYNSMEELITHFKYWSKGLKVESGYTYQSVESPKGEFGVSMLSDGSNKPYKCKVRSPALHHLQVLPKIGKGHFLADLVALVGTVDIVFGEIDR
Tt-CI (Tetrahymena thermophila complex I, in Tt-SC I+III2), sequence (Q951B4 1-162 partner): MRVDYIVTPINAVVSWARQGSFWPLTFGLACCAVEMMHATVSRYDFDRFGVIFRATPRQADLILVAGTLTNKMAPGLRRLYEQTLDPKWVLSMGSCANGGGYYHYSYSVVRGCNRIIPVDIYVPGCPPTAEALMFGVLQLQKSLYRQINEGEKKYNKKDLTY
Tt-CI (Tetrahymena thermophila complex I, in Tt-SC I+III2), sequence (Q950Z7 1-121 partner): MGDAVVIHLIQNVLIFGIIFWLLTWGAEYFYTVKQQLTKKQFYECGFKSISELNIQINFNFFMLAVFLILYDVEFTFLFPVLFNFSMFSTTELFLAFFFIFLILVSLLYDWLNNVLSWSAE

stoichiometry N [2] | Compound | cryo-EM structure [1]
 | Cc1cc2nc3c(=O)[nH]c(=O)nc-3n(C[C@H](O)[C@H](O)[C@H](O)COP(=O)(O)O)c2cc1C [flavin mononucleotide] | relative locations of the flavin mononucleotide (FMN) co-factor and eight ironsulfur clusters
2 | Tetrahymena thermophila complex III protomer (Tt-CIII) | 
